Experimental data taken from US8546380B2, “Aminodihydrothiazine derivatives” (Shionogi & Co., Ltd., priority 2005, dated 2013).
Read-outs that look alike come from different tables or passages of the source.

Tests used:
[1] = target: recombinant human BACE-1 protein (Homo sapiens (Human), UniProt P56817); assay: Measurement of Inhibition of β-Secretase Activity; assay type: biochemical; conditions: 3 h at 30° C., pH5.0, read-out: IC50 value
Outline: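 Recombinant human BACE-1 incubated with compound and Eu-cryptate-labelled biotinylated peptide substrate 3 h at 30° C in 50 mM sodium acetate pH 5.0, 0.008% Triton X-100. Streptavidin-XL665 in KF-containing phosphate buffer pH 7.0 then added, 1 h at 30° C, for time-resolved FRET read-out.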

[2] = fluorescence-quenched peptide substrate 18 nM, BACE-1 7.4 nM
[3] = recombinant human BACE-1 protein

Sequence of recombinant human BACE-1 protein (P56817 46-501): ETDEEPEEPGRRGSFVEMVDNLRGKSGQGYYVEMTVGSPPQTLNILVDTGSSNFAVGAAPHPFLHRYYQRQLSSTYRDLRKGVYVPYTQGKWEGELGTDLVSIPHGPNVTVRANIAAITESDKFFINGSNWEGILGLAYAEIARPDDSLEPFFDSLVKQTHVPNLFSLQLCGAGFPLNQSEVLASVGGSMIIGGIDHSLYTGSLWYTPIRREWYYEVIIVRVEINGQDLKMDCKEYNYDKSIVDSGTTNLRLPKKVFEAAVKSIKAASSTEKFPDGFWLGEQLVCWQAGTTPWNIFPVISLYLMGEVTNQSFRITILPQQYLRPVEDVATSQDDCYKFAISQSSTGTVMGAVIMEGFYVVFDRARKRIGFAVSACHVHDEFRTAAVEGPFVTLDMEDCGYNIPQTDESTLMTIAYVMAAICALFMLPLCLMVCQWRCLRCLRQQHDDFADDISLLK

melting point | IC50 [1, 2] | IC50 [1, 3] | SMILES
149 to 150 °C | < 100 µM |  | CC1(c2cccc(CNC(=O)c3ccc(Cl)cc3)c2)CCSC(N)=N1.Cl (centres unmarked) [Compound 1184]
147 to 148 °C | < 100 µM |  | Cc1ccc(C2(C)CCSC(N)=N2)cc1 (centres unmarked) [Compound 85]
139 to 141 °C | < 100 µM |  | COc1ccc(C2(C)CCSC(N)=N2)cc1F (centres unmarked) [Compound 551]
287 to 290 °C | < 100 µM |  | CC(=O)c1ccc(C(=O)Nc2cccc(C3(C)CCSC(N)=N3)c2)nc1 (centres unmarked) [Compound 139]
263 to 266 °C | < 100 µM |  | CC1(c2cc(NC(=O)c3ccc(Cl)cn3)cc(C(=O)Nc3ccccc3)c2)CCSC(N)=N1 (centres unmarked) [Compound 1217]
200 to 202 °C | < 100 µM |  | CC1(c2cccc(/C=N/O)c2)CCSC(N)=N1 (centres unmarked) [Compound 611]
187 to 188 °C | < 100 µM |  | CC1(c2csc3ccccc23)CCSC(N)=N1 (centres unmarked) [Compound 42]
204 to 206 °C | < 100 µM |  | CC1(c2cccc(NC(=O)c3ncc(Cl)cn3)c2)CCSC(N)=N1 (centres unmarked) [Compound 515]
247 to 251 °C (dec.) |  | 0.174 µM | COc1cc(NC(=O)c2ccc(Cl)cn2)cc(C2(C)CCSC(N)=N2)c1.Cl (centres unmarked) [Compound 1035]
166 to 167 °C | < 100 µM |  | CC1(c2cccc(OCCOc3ccc(Cl)cc3)c2)CCSC(N)=N1.Cl (centres unmarked) [Compound 121]
147 to 148 °C | < 100 µM |  | CC1(c2ccc3c(c2)CCCC3)CCSC(N)=N1 (centres unmarked) [Compound 6]
100 to 101 °C | < 100 µM |  | CC1(c2ccc(F)cc2)CCSC(N)=N1 (centres unmarked) [Compound 549]
105 to 106 °C | < 100 µM |  | CC1(c2cccc(COc3ccc(Cl)cc3)c2)CCSC(N)=N1 (centres unmarked) [Compound 1028]
147 to 149 °C | < 100 µM |  | CC1(c2cccc(/C=N/OCc3ccncc3)c2)CCSC(N)=N1 (centres unmarked) [Compound 456]
179 to 180 °C | < 100 µM |  | CC1(c2cccc(/C=C\CCc3ccc(Cl)cc3)c2)CCSC(N)=N1.Cl (centres unmarked) [Compound 1261]
251 to 254 °C | < 100 µM |  | CC1(c2ccc(O)cc2)CCSC(N)=N1.Cl (centres unmarked) [Compound 413]
166 to 168 °C | < 100 µM |  | CC1(c2ccc(Oc3ccc(Br)cc3)cc2)CCSC(N)=N1 (centres unmarked) [Compound 735]
169 to 170 °C | < 100 µM |  | COc1ccc(CCCOc2cccc(C3(C)CCSC(N)=N3)c2)cc1.Cl (centres unmarked) [Compound 936]
185 to 187 °C |  | 0.264 µM | CC1(c2cc(NC(=O)c3ccc(Cl)cn3)cc(C(F)(F)F)c2)CCSC(N)=N1 (centres unmarked) [Compound 964]

melting point | IC50 [1, 2] | IC50 [1, 3] | SMILES
205 to 208 °C | < 100 µM |  | CC1(c2cc(NC(=O)c3ncc(Cl)cn3)ccc2F)CCSC(N)=N1 (centres unmarked) [Compound 204]
121 to 124 °C | < 100 µM |  | COc1ccc(NC(=O)/C=C(\Cl)c2cccc(C3(C)CCSC(N)=N3)c2)cc1 (centres unmarked) [Compound 1114]
192 to 194 °C | < 100 µM |  | COc1ccc(C(=O)Nc2cccc(C3(C)CCSC(N)=N3)c2)nn1 (centres unmarked) [Compound 405]
250 to 255 °C (dec.) |  | 0.912 µM | COCc1cc(NC(=O)c2ccc(Br)cc2)cc(C2(C)CCSC(N)=N2)c1.Cl (centres unmarked) [Compound 1197]
250 °C (dec.) |  | 0.505 µM | Cl.NC1=NC(c2cccc(NC(=O)c3ccc(Cl)cn3)c2)CCS1 (centres unmarked) [Compound 740]
182 to 186 °C (dec.) | < 100 µM |  | CC1(c2cccc(/C(Cl)=C/C(=O)Nc3ccc(Cl)cn3)c2)CCSC(N)=N1 (centres unmarked) [Compound 1142]
206 to 210 °C |  | 0.165 µM | CC1(c2cc(Br)cc(NC(=O)c3cc4ccccc4s3)c2)CCSC(N)=N1.Cl (centres unmarked) [Compound 1014]
181 to 183 °C | < 100 µM |  | CC1(c2ccc3c(c2)OCCO3)CCSC(N)=N1 (centres unmarked) [Compound 18]
152 to 153 °C | < 100 µM |  | CC1(c2cccc(/C=N/OCc3cccnc3)c2)CCSC(N)=N1 (centres unmarked) [Compound 584]
173 to 174 °C | < 100 µM |  | Cc1ccc(C(=O)Nc2cccc(C3(C)CCSC(N)=N3)c2)nc1 (centres unmarked) [Compound 528]
187 to 190 °C | < 100 µM |  | CC1(c2cc(NC(=O)c3n[nH]c4ccccc34)ccc2F)CCSC(N)=N1 (centres unmarked) [Compound 241]
214 to 217 °C | < 100 µM |  | COc1ccc(C2(C)N=C(N)SCC2C)cc1.Cl (centres unmarked) [Compound 8]
137 to 138 °C | < 100 µM |  | COc1ccc(OCc2cccc(C3(C)CCSC(N)=N3)c2)cc1 (centres unmarked) [Compound 502]
181 to 182 °C | < 100 µM |  | CCC1(c2cccc(NC(=O)c3ccc(Cl)cn3)c2)CCSC(N)=N1 (centres unmarked) [Compound 380]
278 to 281 °C |  | 0.14 µM | CC1(c2cc(Br)cc(NC(=O)c3ccc(Br)cc3)c2)CCSC(N)=N1.Cl (centres unmarked) [Compound 1262]
128 to 131 °C | < 100 µM |  | Cc1cc(C(=O)Nc2cccc(C3(C)CCSC(N)=N3)c2)n(C)n1 (centres unmarked) [Compound 130]
155 to 156 °C | < 100 µM |  | CC1(c2cccc(CO)c2)CCSC(N)=N1 (centres unmarked) [Compound 501]
211 to 213 °C | < 100 µM |  | CC1(c2cc(NC(=O)c3ccc(C(F)(F)F)cn3)ccc2F)CCSC(N)=N1 (centres unmarked) [Compound 396]
178 to 182 °C | < 100 µM |  | CC(C)Oc1cnc(C(=O)Nc2cccc(C3(C)CCSC(N)=N3)c2)cn1 (centres unmarked) [Compound 410]

melting point | IC50 [1, 2] | IC50 [1, 3] | SMILES
136 to 137 °C | < 100 µM |  | CC1(c2ccc(Cl)cc2)CCSC(N)=N1 (centres unmarked) [Compound 1062]
255 to 260 °C (dec.) |  | 2.3 µM | CC(C)Oc1cc(NC(=O)c2ccc(Cl)cn2)cc(C2(C)CCSC(N)=N2)c1.Cl (centres unmarked) [Compound 1135]
146 to 149 °C | < 100 µM |  | CC1(c2ccc3c(c2)CCO3)CCSC(N)=N1 (centres unmarked) [Compound 1084]
159 to 163 °C | < 100 µM |  | COCc1ccc(C(=O)Nc2cccc(C3(C)CCSC(N)=N3)c2)nc1 (centres unmarked) [Compound 128]
212 to 214 °C | < 100 µM |  | Cc1cnc(C(=O)Nc2ccc(F)c(C3(C)CCSC(N)=N3)c2)cn1 (centres unmarked) [Compound 359]
189 to 191 °C | < 100 µM |  | CC1(c2cccc(NC(=O)c3ccc(N4CCOCC4)cn3)c2)CCSC(N)=N1 (centres unmarked) [Compound 1131]
240 to 244 °C (dec.) | < 100 µM |  | CC1(c2ccc3c(c2)NC(=O)CO3)CCSC(N)=N1 (centres unmarked) [Compound 38]
285 °C (dec.) | < 100 µM |  | CC1(c2ccc3ccccc3c2)CCSC(N)=N1.Cl (centres unmarked) [Compound 3]
134 to 140 °C | < 100 µM |  | CC1(c2cccc(/C=C/C(=O)Nc3ccccc3)c2)CCSC(N)=N1 (centres unmarked) [Compound 1109]
182 to 183 °C | < 100 µM |  | CC1(c2cccc(/C=N/OCc3ccccn3)c2)CCSC(N)=N1 (centres unmarked) [Compound 1193]
199 to 203 °C | < 100 µM |  | CC1(c2cccc(CCC(=O)Nc3ccc(Cl)cn3)c2)CCSC(N)=N1.Cl.Cl (centres unmarked) [Compound 657]
191 to 193 °C |  | 1.5 µM | CC1(c2cccc(C(=O)Nc3ccc(Cl)cn3)c2)CCSC(N)=N1.Cl.Cl (centres unmarked) [Compound 220]
156 to 157 °C | < 100 µM |  | Cc1ccc2cc(C3(C)CCSC(N)=N3)ccc2c1 (centres unmarked) [Compound 758]
137 to 139 °C |  | 5 µM | CCOC(=O)/C=C/c1cccc(C2(C)CCSC(N)=N2)c1 (centres unmarked) [Compound 417]
169 to 170 °C | < 100 µM |  | CC1(c2ccc(Oc3ccccc3)cc2)CCSC(N)=N1 (centres unmarked) [Compound 1055]
122 to 125 °C |  | 0.93 µM | CC1(c2cccc(NC(=O)c3ccc(C#N)cc3)c2)CCSC(N)=N1 (centres unmarked) [Compound 498]
91 to 94 °C |  | 0.278 µM | Cc1cc(C(=O)Nc2cc(Br)cc(C3(C)CCSC(N)=N3)c2)c(C)o1 (centres unmarked) [Compound 731]
221 to 224 °C | < 100 µM |  | CC1(c2cc(F)cc(NC(=O)c3ccc(Cl)cn3)c2)CCSC(N)=N1 (centres unmarked) [Compound 99]

SMILES | melting point | IC50 [1, 2] | IC50 [1, 3]
CC1(c2cccc(/C=C/c3ccc(Cl)cc3)c2)CCSC(N)=N1.Cl (centres unmarked) [Compound 161] | 247 to 251 °C |  | 7.7 µM
COCc1cc(NC(=O)c2ccc(C)cc2)cc(C2(C)CCSC(N)=N2)c1 (centres unmarked) [Compound 465] | 194.6 °C |  | 3.24 µM
CC1(c2cc(Br)cc(NC(=O)c3nc4ccccc4s3)c2)CCSC(N)=N1.Cl (centres unmarked) [Compound 570] | 186 to 187 °C |  | 0.149 µM
CC1(c2cccc(OCCCc3ccccc3)c2)CCSC(N)=N1 (centres unmarked) [Compound 1010] | 90 to 91 °C |  | 2.8 µM
CC1(c2cccc(NC(=O)c3ncc(Cl)cc3Cl)c2)CCSC(N)=N1.Cl (centres unmarked) [Compound 127] | 280 to 285 °C |  | 0.054 µM
